Results on seven compounds are retold here after patent US5324648A, “Substituted isocoumarins as serine protease inhibitors and anti-inflammatory agents” (Georgia Tech Research Corporation, priority 1992, dated 1994).

One data set has as its target T1, complement protein C2 (Homo sapiens, UniProt P06681).
T1 sequence (P06681 21-752): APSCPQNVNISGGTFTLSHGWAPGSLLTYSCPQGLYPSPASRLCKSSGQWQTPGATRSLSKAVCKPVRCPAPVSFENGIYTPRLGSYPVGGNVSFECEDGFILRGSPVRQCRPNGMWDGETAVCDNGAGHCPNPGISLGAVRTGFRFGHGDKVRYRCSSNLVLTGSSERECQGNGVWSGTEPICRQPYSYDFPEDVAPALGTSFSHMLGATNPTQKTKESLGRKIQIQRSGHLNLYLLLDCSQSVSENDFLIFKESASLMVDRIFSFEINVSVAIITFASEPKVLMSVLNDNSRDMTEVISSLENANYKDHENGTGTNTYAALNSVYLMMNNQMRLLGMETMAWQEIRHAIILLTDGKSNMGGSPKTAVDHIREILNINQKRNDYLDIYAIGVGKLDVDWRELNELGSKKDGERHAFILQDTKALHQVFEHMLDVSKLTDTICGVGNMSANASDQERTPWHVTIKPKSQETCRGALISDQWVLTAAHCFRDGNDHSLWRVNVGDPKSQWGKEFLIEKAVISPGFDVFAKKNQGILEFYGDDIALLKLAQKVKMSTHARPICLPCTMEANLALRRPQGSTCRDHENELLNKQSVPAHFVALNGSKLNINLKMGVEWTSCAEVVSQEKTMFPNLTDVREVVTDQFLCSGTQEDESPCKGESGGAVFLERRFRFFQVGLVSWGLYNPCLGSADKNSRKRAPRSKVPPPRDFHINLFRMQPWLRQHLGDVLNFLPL
Nature of the data set: Inactivation rate of complement protein C2. Format: biochemical. As to conditions: for kinact/KI: Table II, pH 7.5, 25° C, [I] 0.19 to 1.25 mM, read-out: kobs/[I]. The protocol: (§1) Inactivation rates of serine proteases by substituted isocoumarins were measured by the incubation method. An aliquot of inhibitor (25 or 50 μl) in Me2 SO was added to a buffered enzyme solution (0.01-2.3 μM) to initiate the inactivation. Aliquots (50 μl) were withdrawn at various intervals and the residual enzymatic activity was measured. Me2 SO concentration in the reaction mixture was 8-12% (v/v). 0.1 Hepes, 0.01M CaCl2, pH 7.5 buffer was utilized for trypsin and coagulation enzymes. 0.1M Hepes, 0.5M NaCl, pH 7.5 was utilized for other serine proteases. The inhibitor concentrations are shown in all the tables. Peptide thioesters or peptide nitroanilides with appropriate sequence were used as substrates for various serine proteases. All peptide thioester hydrolysis rates were measured with assay mixtures containing 4,4'-dithiodipyridine (ε324 =19800M^-1 cm^-1; Grasetti & Murray, Arch. Biochem. Biophys. 119, pp 41-49 (1967)). Peptide 4-nitroanilide nitroanilide hydrolysis was measured at 410 nm (ε410 =8800M^-1 cm^-1; Erlanger et al., Arch. Biochem. Biophys. 95, pp 271-278 (1961)). First order inactivation rate constant (kobs) were obtained from plots of ln (vt /vo) vs time, and the correlation coefficients were greater than 0.98.
(§2) ^a Conditions were 0.1M Hepes, 0.5M NaCl, pH 7.5, 8-10% Me2 SO
and 25° C. Inactivation rates were measured by incubation method.
Enzyme concentrations were as follows: protein D, 1-9 μM; C2, 0.7-1
μM; B, 1.8 μM; Bb, 0.3-0.8 μM; Cl^- s, 0.07 μM; Cl^-

The next data set deals with T2, C2a (Homo sapiens, UniProt P06681).
T2 construct: active fragments C2a, Bb
The experiment in a line: Inactivation rate of complement fragment C2a. Format: biochemical. As to conditions: Table II; pH 7.5, 25° C; [I] 0.19 to 1.25 mM; read-out: kobs/[I]. The protocol:
as §1, §2
and 25° C. Inactivation rates were measured by incubation method. […]

Data set [1] is described as follows: Activated partial thromboplastin time (APTT), rabbit plasma.
A further data set concerns the target T3, human thrombin (Homo sapiens, UniProt P00734).
T3 construct: human thrombin
Nature of the data set: Inactivation rate of human thrombin. As to conditions: Table VIII; pH 7.5, 25° C; [I] 1.2-54 μM; read-out: kobs/[I]. Type of data set: biochemical. A digest of the protocol: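 Incubation method: enzyme (0.01-2.3 μM) mixed with inhibitor in 0.1M Hepes, 0.01M CaCl2, pH 7.5, 8% Me2SO, 25° C; residual activity sampled over time with peptide thioester or 4-nitroanilide substrates. kobs from ln(vt/vo) vs time plots.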

The nature of data set [2]: Spontaneous hydrolysis in rabbit plasma. Format: in vitro ADME. As to conditions: for half-life: rabbit plasma, read-out: t1/2 for spontaneous hydrolysis.
For another data set, the target named is T4, human skin chymase (Homo sapiens, UniProt P23946).
T4 construct: human skin chymase; from tissue; host or cells: human skin
T4 sequence (P23946 22-247): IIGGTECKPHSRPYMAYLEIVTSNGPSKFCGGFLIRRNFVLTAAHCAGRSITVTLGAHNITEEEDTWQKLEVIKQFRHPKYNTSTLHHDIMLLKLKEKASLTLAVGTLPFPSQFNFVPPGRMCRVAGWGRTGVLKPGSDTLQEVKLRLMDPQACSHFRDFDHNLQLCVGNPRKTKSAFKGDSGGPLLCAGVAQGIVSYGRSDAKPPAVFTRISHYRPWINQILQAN
The experiment in a line: Inactivation rate of human skin chymase. Format: biochemical. As to conditions: Table V; pH 7.5, 25° C; [I] 0.41 to 0.53 mM; read-out: kobs/[I]. The protocol: as §1
(§3) ^a Inactivation rates were measured at 0.1M Hepes, 0.5M NaCl, pH 7.5,
(§4) 8-12% Me2 SO and 25° C. by incubation method. An aliquot of […]

For another data set, the target named is T5, human lung chymase (Homo sapiens, UniProt P23946).
T5 construct: human lung chymase; from tissue; host or cells: human lung
T5 sequence (P23946 22-247): as above
The experiment in a line: Inactivation rate of human lung chymase. Format: biochemical. The following applies: Table V; pH 7.5, 25° C; [I] 0.38 mM; read-out: kobs/[I]. As to the method: as §1, §3, §4

The target in data set [3] is T6, rat mast cell protease II (Rattus norvegicus, UniProt P00770).
T6 construct: rat mast cell protease II; from tissue; host or cells: rat mast cells (by the enzyme's name only)
T6 sequence (P00770 21-247): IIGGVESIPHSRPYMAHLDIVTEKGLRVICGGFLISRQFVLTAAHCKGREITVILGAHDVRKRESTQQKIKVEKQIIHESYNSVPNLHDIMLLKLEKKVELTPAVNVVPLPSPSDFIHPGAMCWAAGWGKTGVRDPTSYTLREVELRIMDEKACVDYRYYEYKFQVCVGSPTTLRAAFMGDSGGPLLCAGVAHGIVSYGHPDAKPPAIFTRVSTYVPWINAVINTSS
Nature of the data set: Inactivation rate of rat mast cell protease II. Format: biochemical. The following applies: Table V; pH 7.5, 25° C; [I] 0.007 to 0.013 mM; read-out: kobs/[I]. The protocol:
as §1, §3, §4

In data set [4] the test system is pig plasma. Nature of the data set: Activated partial thromboplastin time (APTT), pig plasma. As to conditions: [I] 16 μM.
The subject of data set [5] is pig plasma. Nature of the data set: Prothrombin time (PT), pig plasma.

With `O=c1oc(Cl)c(Cl)c2ccccc12` [3,4-dichloroisocoumarin, reference compound], the “inhibition of C2 (in words)” value on complement protein C2 is reported as “do not show any inhibition”.

`N=C(N)SCCOc1oc(=O)c2ccccc2c1Cl` [3-(2-isothiureidoethoxy)-4-chloroisocoumarin]: the kinact/KI at C2a is 1.4 M⁻¹ s⁻¹; on complement protein C2 it was 1.5 M⁻¹ s⁻¹.

Turning to `N=C(N)SCCCOc1oc(=O)c2ccccc2c1Cl` [3-(3-isothiureidopropoxy)-4-chloroisocoumarin], the figures for the kinact/KI on C2a and at complement protein C2 were 0.8 M⁻¹ s⁻¹ and 0.5 M⁻¹ s⁻¹, respectively.

In [1] ([I] 33 μM), `N=C(N)SCCCOc1oc(=O)c2cc(N)ccc2c1Cl` [7-amino-4-chloro-3-(3-isothiureidopropoxy)isocoumarin] registered an APTT of 68.6 s. Moreover, on human thrombin, the kinact/KI came to 760 M⁻¹ s⁻¹. For the same compound, in [2], the “stability in rabbit plasma (in words)” value is recorded as “fairly stable” and the half-life came to 2.33 h.

Take `CCOc1oc(=O)c2cc(NC(=N)N)ccc2c1Cl` [7-guanidino-3-ethoxy-4-chloroisocoumarin, 7-guanidino-4-chloro-3-ethoxyisocoumarin]: the kinact/KI on human skin chymase is 33 M⁻¹ s⁻¹; at human lung chymase it was 540 M⁻¹ s⁻¹; in data set [3], 1100 M⁻¹ s⁻¹. In data set [1] ([I] 31 μM), this compound gave an APTT of 60.5 s. In addition, the half-life in data set [2] came out at 0.07 h.

For `N=C(N)Nc1ccc2c(Cl)c(OCCc3ccccc3)oc(=O)c2c1` [7-guanidino-4-chloro-3-(2-phenylethoxy)isocoumarin], the kinact/KI is 22 M⁻¹ s⁻¹ at human skin chymase and 4100 M⁻¹ s⁻¹ in data set [3].

Regarding `N=C(N)SCCOc1oc(=O)c2cc(NC(=O)Nc3ccccc3)ccc2c1Cl` [PhNHCONH-CiTEtOIC, 7-(phenylcarbamoylamino)-4-chloro-3-(2-isothiureidoethoxy)isocoumarin], the APTT with pig plasma [4] is > 120 s. Moreover, the kinact/KI on human thrombin is 22400 M⁻¹ s⁻¹. The PT in the data set on pig plasma [5] ([I] 16 μM) was 28.5 s; in the data set with pig plasma [5] ([I] 32 μM), 58.3 s.
